In brackets after ≈: the same amount, converted by molar mass. Like-named read-outs stand apart in the source and are kept apart here.
Key:
P388/ADR cells [1] = test: In vitro growth inhibition of P388/ADR cells; type: cell-based, murine
C26/10 tumor = test: C26/10 s.c. tumor growth delay study; type: in vivo, CD2F1 mice; conditions: tumor growth delay to 750 mg, s.c. implant, treated i.p. Days 3-7 and 10-14; >5 to 6 days = antitumor effect
Method: (§1) To test compounds of the present invention in vivo, the following methodology was used. P388 leukemia and its Adriamycin resistant subline, P388/ADR were passed weekly in DBA/2 mice as i.p. implants of 10^5 and 10^6 cells, respectively. Animals bearing P388/ADR passage were treated with 7 mg/kg Adriamycin on Day 3 post-implant as a resistance selection pressure. C26/clone 10 was passed every 2 weeks into Balb/c mice as tumor fragments (approximately 30 mg) which were obtained from tumors 1 g in mass.
For the tumor growth delay studies with C26/10, CD2F1 mice were implanted s.c. with 30 mg tumor fragments in the region of the right axilla with the aid of a trocar on Day 0. Animals were treated i.p. with test agents in the vehicles described above on Days 3-7 and 10-14. Adriamycin was dosed i.p. in saline on Days 5, 9, and 13. Tumors in the treated and control groups were measured twice weekly in two perpendicular dimensions and tumor mass calculated according to the formula: mass (mg)=(a×b^2)/2 where “b” is the smallest tumor dimension and “a” is the largest. Calculations of tumor growth delay, defined as the median time (in days) for the treated tumors to reach 750 mg in size minus the median time (in days) for the control tumors to reach 750 mg in size, were as described previously (Schabel, 1977; Leopold, 1985; Elliot, 1984). Growth delays in excess of 5 to 6 days in the C26/10 model are considered to be an antitumor effect.

[2] = tested on: C26 murine colon tumor cells; test: Combination of antifolates with FU and LV on C26 proliferation; type: cell-based
P388S cells = test: In vitro growth inhibition of P388S cells; type: cell-based; conditions: Mus musculus, P388/S; in vitro; read-out: P388S IC50
[3] = tested on: P388 murine leukemia cells; test: Combination of antifolates with FU and LV on P388 proliferation; type: cell-based
P388 leukemia = test: In vivo P388 leukemia life span study; design: species or system CD2F1 mice; conditions: maximum tolerated dose, i.p. Days 3-11 (Adriamycin Days 3, 7, 11); >130 = antitumor effect
colon cancer = conditions: cited from earlier work
P388/ADR leukemia = test: In vivo P388/ADR leukemia life span study; design: species or system CD2F1 mice
[4] = tested on: HT29 human colon adenocarcinoma cells; test: Combination of antifolates with FU and LV on HT-29 proliferation (sulphorhodamine B)
[5] = tested on: Colon 26/clone 10 (C26/10); test: Colon 26/clone 10 i.p. life span study; type: in vivo, CD2F1 mice
Method: as §1
Colon 26/clone 10 (C26/10) life span studies were conducted in CD2F1 mice. C26/C10 cells were implanted i.p. on Day 0. Animals were treated i.p. with test agents in the vehicles described above on Days 3-7 and 10-14. Adriamycin was dosed i.p. in saline on Days 5, 9, and 13. […] Percent T/C values in excess of 130 are indicative of an antitumor effect in this model.

P388/ADR cells [6] = test: Combination of antifolates with FU and LV on P388/ADR proliferation; type: cell-based, murine
[7] = in words, TMQ at a concentration 10-fold higher than the other antifolates

In the case of COc1cc(NCc2ccc3nc(N)nc(N)c3c2C)cc(OC)c1OC [Trimetrexate, reference compound], the IC50 (P388/ADR cells [1]; Mus musculus, P388/ADR, in vitro) was 0.152 µg/mL (≈ 0.411 µM), the R/S (P388/ADR cells [1]; ratio resistant (P388/ADR) to sensitive (P388S) IC50) was 22 and the “C26 sc T-C” value (C26/10 tumor) was 6.8 days. For the same molecule, the “Antifol + FU” value ([2]; C26, antifolate 0.125 μM 24 hours, 5 μM FU final 4 hours) was 65% of Control, the “Antifol + LV” value ([2]; C26, antifolate 0.125 μM 24 hours, LV 10 μM final 4.5 hours) was 98% of Control and the “Antifol + FU + LV” value ([2]; C26, antifolate 0.125 μM 24 hours, LV 10 μM final 4.5 hours, 5 μM FU final 4 hours) was 64% of Control. The Antifol ([2]; C26, antifolate 0.125 μM, 24 hours) was 101% of Control, the “effect on C26 proliferation alone” value ([2]; in words, 0.125 μM) was “no effect” and the “synergy with FU and/or LV on C26 cells” value ([2]; in words, 0.125 μM) was “no significant synergy”. For the same molecule, the IC50 (P388S cells) was 6.9 ng/mL (≈ 0.0187 µM), the “Antifol + FU” value ([3]; antifolate 1.0 nM 24 hours, 5 μM FU final 4 hours) was 12% of control and the “Antifol + LV” value ([3]; antifolate 1.0 nM 24 hours, LV 10 μM final 4.5 hours) was 85% of control. For the same molecule, the “Antifol + LV + FU” value ([3]; antifolate 1.0 nM 24 hours, LV 10 μM final 4.5 hours, 5 μM FU final 4 hours) was 9% of control, the Antifol ([3]; antifolate 1.0 nM, 24 hours) was 80% of control and the “P388S T/C” value (P388 leukemia) was 164%. For the same molecule, the response rate (colon cancer; TMQ added to LV/FU, colon cancer patients previously treated with FU) was 20%, the response rate (colon cancer; combination of TMQ, FU and LV, metastatic colorectal cancer patients) was 50% and the “activity against P388/ADR tumors in vivo” value (P388/ADR leukemia; in words) was “inactive”. For the same molecule, the “P388/ADR T/C” value (P388/ADR leukemia; maximum tolerated dose, i.p. Days 3-11 (Adriamycin Days 3, 7, 11), >130 = antitumor effect) was 113%, the “Antifol + FU” value ([4]; antifolate 62.5 nM 24 hours, 5 μM FU final 4 hours) was 35% of control and the “Antifol + LV” value ([4]; antifolate 62.5 nM 24 hours, LV 10 μM final 4.5 hours) was 77% of control. For the same molecule, the “Antifol + LV + FU” value ([4]; antifolate 62.5 nM 24 hours, LV 10 μM final 4.5 hours, 5 μM FU final 4 hours) was 30% of control, the Antifol ([4]; antifolate 62.5 nM, 24 hours) was 75% of control and the “C26 ip T/C” value ([5]; i.p. implant, treated i.p. Days 3-7 and 10-14 (Adriamycin Days 5, 9, 13), >130 = antitumor effect) was 119%. For the same molecule, the “activity against C26 colon tumor in vivo” value ([5]; in words, T/C×100>130 represents in vivo antitumor activity) was “without activity”, the “Antifol + FU” value (P388/ADR cells [6]; P388/ADR, TMQ 10 nM 24 hours, 5 μM FU final 4 hours) was 83% of control and the “Antifol + LV” value (P388/ADR cells [6]; P388/ADR, TMQ 10 nM 24 hours, LV 10 μM final 4.5 hours) was 100% of control. For the same molecule, the “Antifol + LV + FU” value (P388/ADR cells [6]; P388/ADR, TMQ 10 nM 24 hours, LV 10 μM final 4.5 hours, 5 μM FU final 4 hours) was 76% of control, the Antifol (P388/ADR cells [6]; P388/ADR, TMQ 10 nM, 24 hours) was 92% of control and the “activity alone against P388/ADR cells” value (P388/ADR cells [6]; [7]) was “little activity alone”. For the same molecule, the “increase in activity by addition of FU or LV, P388/ADR cells” value (P388/ADR cells [6]; [7]) was “nor was a significant increase in activity observed”.

— patent publication US20040006042A1, “Diaminopyrimidines and combination therapies effective for treatment of P-glycoprotein positive cancers” (priority 1998, published 2004)
